Experimental data reported in BindingDB's records for doi:10.1021/acs.jmedchem.5b00659 (Taipei Medical University, 2015).

Molecular target: Signal transducer and activator of transcription 3 (Homo sapiens, UniProt P40763)
Experiment: Inhibition of STAT3 tyrosine phosphorylation in human A549 cells by sandwich ELISA method

Sequence of Signal transducer and activator of transcription 3 (P40763 whole entry): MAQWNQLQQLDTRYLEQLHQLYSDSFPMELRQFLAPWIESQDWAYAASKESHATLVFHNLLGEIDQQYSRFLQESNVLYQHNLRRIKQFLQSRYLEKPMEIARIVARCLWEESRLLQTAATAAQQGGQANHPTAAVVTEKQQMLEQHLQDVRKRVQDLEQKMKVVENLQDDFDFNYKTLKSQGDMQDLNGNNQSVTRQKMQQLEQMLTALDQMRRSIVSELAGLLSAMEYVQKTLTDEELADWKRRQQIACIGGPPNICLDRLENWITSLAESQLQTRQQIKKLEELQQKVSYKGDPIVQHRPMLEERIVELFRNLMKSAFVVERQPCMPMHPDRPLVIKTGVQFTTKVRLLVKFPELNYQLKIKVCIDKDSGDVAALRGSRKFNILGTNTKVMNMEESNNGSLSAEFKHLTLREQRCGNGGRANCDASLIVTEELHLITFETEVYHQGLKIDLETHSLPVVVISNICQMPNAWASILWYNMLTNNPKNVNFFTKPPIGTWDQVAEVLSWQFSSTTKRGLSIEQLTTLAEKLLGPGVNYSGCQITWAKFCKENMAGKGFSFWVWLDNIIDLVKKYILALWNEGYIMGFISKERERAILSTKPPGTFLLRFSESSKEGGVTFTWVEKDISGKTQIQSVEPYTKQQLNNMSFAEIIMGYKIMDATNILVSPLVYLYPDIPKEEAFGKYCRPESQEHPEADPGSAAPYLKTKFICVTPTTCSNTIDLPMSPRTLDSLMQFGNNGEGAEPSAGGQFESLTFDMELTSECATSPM

- IC50: 2750 nM
Compound: COc1ccc(S(=O)(=O)Nc2ccccc2-c2ccc(F)c(F)c2)cc1
